Values of other authors in publication PMC8198792, “Prediction of Anticancer Peptides with High Efficacy and Low Toxicity by Hybrid Model Based on 3D Structure of Peptides” (International Journal of Molecular Sciences, 2021).
Read-outs that look alike come from different tables or passages of the source.

Experiments:
[1] = tested on: many types of cells, including non-cancer cells; details: toxic peptides dataset TD2; class label 1 (toxic, positive set) or 0 (non-toxic AMP, negative set); ref SATPdb; cited from earlier work
[2] = tested on: cancer cell lines; design: method as in 6 sources, ref CancerPPD [45] and SATPdb ||| ref CancerPPD/SATPdb ||| ref CancerPPD, SATPdb, Swissprot (PDB) ||| ref CancerPPD/SATPdb/Swissprot(PDB) ||| ref CancerPPD / SATPdb ||| ...; details: cited from earlier work
From the text: Supplement ijms-22-05630-s001.zip/ACPs(seguence).xlsx, sheet "D1" | column: Activity || Supplement ijms-22-05630-s001.zip/ACPs(seguence).xlsx, sheet "D2" | column: Activity || Supplement ijms-22-05630-s001.zip/ACPs(seguence).xlsx, sheet "D3" | column: Activity || (+ 2 further places)

[3] = ACPs dataset D3 (sheet "D3"), label 1 = ACP, 0 = non-ACP, ref CancerPPD/SATPdb
[4] = ACPs dataset D4 (sheet "D4"), label 1 = ACP, 0 = non-ACP, ref CancerPPD / SATPdb
[5] = ACPs dataset D5, sheet "D5", label 1 = ACP, 0 = non-ACP, ref CancerPPD [45] and SATPdb
[6] = ACPs dataset D3 (supplement sheet "D3"), 1 = ACP, 0 = non-ACP, ref CancerPPD [45] and SATPdb

For “FKIKPGKVLDKFGKIVGKVLKQLKKVS [satpdb13509]”, the Activity [1] is listed as 1, the Activity [2, 3] is listed as 0 and the Activity [2, 4] is listed as 0. The Activity [2, 5] was 0.
In the case of FLGALWNVAKSVF [satpdb13946], the Activity [1] is given as 0, the Activity [2, 3] is given as 0 and the Activity [2, 4] is given as 0. For the same sequence, the Activity [2, 5] was 0.
For FLGLLPSIVSGAVSLVKKL [satpdb10320], the Activity [1] is listed as 0, the Activity [2, 6] is listed as 0 and the Activity [2, 4] is listed as 0. For the same sequence, the Activity [2, 5] was 0.
In the case of FLPFLAKILTGVL [satpdb14646], the Activity [1] is given as 0, the Activity [2, 3] is given as 0 and the Activity [2, 4] is given as 0. The Activity [2, 5] was 0.
In the case of FLPFLKSILGKIL [satpdb13847], the Activity [1] is given as 0, the Activity [2, 3] is given as 0 and the Activity [2, 4] is given as 0. The Activity [2, 5] was 0.
For FLPIAGKLLSGLSGLL [satpdb12964], the Activity [1] is listed as 0, the Activity [2, 3] is listed as 0 and the Activity [2, 4] is listed as 0. For the same sequence, the Activity [2, 5] was 0.
In the case of FLPILINLIHKGLL [satpdb14138], the Activity [1] is given as 0, the Activity [2, 3] is given as 0 and the Activity [2, 4] is given as 0. For the same sequence, the Activity [2, 5] was 0.
For FLPLLASLFSGLF [satpdb11101], the Activity [1] is listed as 0, the Activity [2, 6] is listed as 0 and the Activity [2, 4] is listed as 0. The Activity [2, 5] was 0.
In the case of FLPLLVGAISSILPKIF [satpdb12883], the Activity [1] is listed as 1, the Activity [2, 3] is listed as 0 and the Activity [2, 4] is listed as 0. The Activity [2, 5] was 0.
In the case of FLPLVGKILSGLI [satpdb11230], the Activity [1] is listed as 0, the Activity [2, 6] is listed as 0 and the Activity [2, 4] is listed as 0. For the same sequence, the Activity [2, 5] was 0.
For FLSLIPHAINAVSAIAKHS [satpdb10076], the Activity [1] is given as 0, the Activity [2, 6] is given as 0 and the Activity [2, 4] is given as 0. For the same sequence, the Activity [2, 5] was 0.
In the case of FLSLIPHAINAVSALANHG [satpdb14661], the Activity [1] is given as 0, the Activity [2, 3] is given as 0 and the Activity [2, 4] is given as 0. For the same sequence, the Activity [2, 5] was 0.
For FLSLLPSLVSGAVSLVKIL [satpdb10512], the Activity [1] is listed as 0, the Activity [2, 6] is listed as 0 and the Activity [2, 4] is listed as 0. The Activity [2, 5] was 0.
For FLSTLWNAAKSIF [satpdb12345], the Activity [1] is listed as 1, the Activity [2, 3] is listed as 0 and the Activity [2, 4] is listed as 0. For the same sequence, the Activity [2, 5] was 0.
For FLWGLIPGAISAVTSLIKK [satpdb12159], the Activity [1] is listed as 0, the Activity [2, 3] is listed as 0 and the Activity [2, 4] is listed as 0. For the same sequence, the Activity [2, 5] was 0.
In the case of GFGSLLGKALRLGANVL [satpdb12093], the Activity [1] is given as 0, the Activity [2, 3] is given as 0 and the Activity [2, 4] is given as 0. For the same sequence, the Activity [2, 5] was 0.
For GFGSVLGKALKFGANLL [satpdb10971], the Activity [1] is listed as 0, the Activity [2, 6] is listed as 0 and the Activity [2, 4] is listed as 0. For the same sequence, the Activity [2, 5] was 0.
In the case of GFLGSLLKTGLKVGSNLL [satpdb10293], the Activity [1] is given as 1, the Activity ([2]; ACPs dataset D1, 1 = ACP (positive), 0 = non-ACP (negative), label taken from databases, ref CancerPPD [45] and SATPdb) is given as 0 and the Activity ([2]; ACPs dataset D4 (sheet "D4"), label 1 = ACP (CancerPPD ID), 0 = non-ACP (non-anticancer AMP, SATPdb ID), ref CancerPPD [45] and SATPdb) is given as 0.
For GFRDVLKGAAKAFVKTVAGHIAN [satpdb12067], the Activity [1] is listed as 0, the Activity [2, 3] is listed as 0 and the Activity [2, 4] is listed as 0. The Activity [2, 5] was 0.
In the case of “GIGGALLSVGKLALKGLANVLADKFAN [satpdb14012]”, the Activity [1] is listed as 1, the Activity [2, 3] is listed as 0 and the Activity [2, 4] is listed as 0. For the same sequence, the Activity [2, 5] was 0.
For GILDVAKTLVGKLRNVLGI [satpdb10523], the Activity [1] is given as 0, the Activity [2, 6] is given as 0 and the Activity [2, 4] is given as 0. The Activity [2, 5] was 0.
For “GKVLDKFGKIVGKVLKQLKKVSAVAKV [satpdb11239]”, the Activity [1] is given as 1, the Activity [2, 6] is given as 0 and the Activity [2, 4] is given as 0. For the same sequence, the Activity [2, 5] was 0.
In the case of GLADFLNKAVGKVVDFVKS [satpdb10833], the Activity [1] is listed as 0, the Activity [2, 6] is listed as 0 and the Activity [2, 4] is listed as 0. The Activity [2, 5] was 0.
For GLFGILGSVAKHVLPHVIPVVAEHL [satpdb11946], the Activity [1] is listed as 0, the Activity [2, 3] is listed as 0 and the Activity [2, 4] is listed as 0. For the same sequence, the Activity [2, 5] was 0.
In the case of GLFSVLGSVAKHLLPHVAPIIAEKL [satpdb13391], the Activity [1] is listed as 0, the Activity [2, 3] is listed as 0 and the Activity [2, 4] is listed as 0. The Activity [2, 5] was 0.
For GLLDALSGILGL [satpdb12939], the Activity [1] is given as 0, the Activity [2, 3] is given as 0 and the Activity [2, 4] is given as 0. The Activity [2, 5] was 0.
In the case of GLLGTLGNLLNGLGL [satpdb12279], the Activity [1] is listed as 0, the Activity [2, 3] is listed as 0 and the Activity [2, 4] is listed as 0. For the same sequence, the Activity [2, 5] was 0.
For GLLSGILNTAGGLLGNLIGSLSN [satpdb13955], the Activity [1] is listed as 0, the Activity [2, 3] is listed as 0 and the Activity [2, 4] is listed as 0. For the same sequence, the Activity [2, 5] was 0.
For GLWEKIKEKANELVSGIVEGVK [satpdb12905], the Activity [1] is listed as 0, the Activity [2, 3] is listed as 0 and the Activity [2, 4] is listed as 0. For the same sequence, the Activity [2, 5] was 0.
For GLWSKIKDVAAAAGKAALGAVNEAL [satpdb12483], the Activity [1] is listed as 0, the Activity [2, 3] is listed as 0 and the Activity [2, 4] is listed as 0. The Activity [2, 5] was 0.
In the case of “GLWSNIKTAGKEAAKAALKAAGKAALGAVTDAV [satpdb12078]”, the Activity [1] is given as 0, the Activity [2, 3] is given as 0 and the Activity [2, 4] is given as 0. For the same sequence, the Activity [2, 5] was 0.
For “GLWSTIKQKGKEAAIAAAKAAGQAVLNSASEAL [satpdb11971]”, the Activity [1] is given as 0, the Activity [2, 3] is given as 0 and the Activity [2, 4] is given as 0. The Activity [2, 5] was 0.
For GMASKAGSVLGKVAKVALKAAL [satpdb13618], the Activity [1] is listed as 0, the Activity [2, 3] is listed as 0 and the Activity [2, 4] is listed as 0. For the same sequence, the Activity [2, 5] was 0.
In the case of “GMFTNMLKGIGKLAGQAALGAVKTLA [satpdb11616]”, the Activity [1] is given as 0, the Activity [2, 6] is given as 0 and the Activity [2, 4] is given as 0. The Activity [2, 5] was 0.
In the case of GRLQAFLAKMKEIAAQTL [satpdb13649], the Activity [1] is listed as 0, the Activity [2, 3] is listed as 0 and the Activity [2, 4] is listed as 0. For the same sequence, the Activity [2, 5] was 0.
For GVLSAFKNALPGIMKIIV [satpdb14593], the Activity [1] is listed as 0, the Activity [2, 3] is listed as 0 and the Activity [2, 4] is listed as 0. For the same sequence, the Activity [2, 5] was 0.
For GVVTDLLKTAGKLLGNLFGSLSG [satpdb14110], the Activity [1] is listed as 1, the Activity [2, 3] is listed as 0 and the Activity [2, 4] is listed as 0. For the same sequence, the Activity [2, 5] was 0.
In the case of “GVWDWLKKTAKNVWNSDIVKQLKGKAINAAKNYVAEKIGATPS [satpdb11887]”, the Activity [1] is listed as 0, the Activity [2, 6] is listed as 0 and the Activity [2, 4] is listed as 0. The Activity [2, 5] was 0.
For GWRLLLKKAEVKTVGKLALKHYL [satpdb14772], the Activity [1] is listed as 0, the Activity [2, 3] is listed as 0 and the Activity [2, 4] is listed as 0. For the same sequence, the Activity [2, 5] was 0.
In the case of HFLGTLVNLAKKIL [satpdb13929], the Activity [1] is listed as 1, the Activity [2, 3] is listed as 0 and the Activity [2, 4] is listed as 0. The Activity [2, 5] was 0.
In the case of ILGAILPLVSGLLSNKL [satpdb12884], the Activity [1] is listed as 0, the Activity [2, 3] is listed as 0 and the Activity [2, 4] is listed as 0. The Activity [2, 5] was 0.
In the case of ILGPVIKTIGGVIGGLLKNL [satpdb10308], the Activity [1] is listed as 1, the Activity [2, 6] is listed as 0 and the Activity [2, 4] is listed as 0. For the same sequence, the Activity [2, 5] was 0.
In the case of ILGPVLGLVGNALGGLIKKL [satpdb12428], the Activity [1] is given as 1, the Activity [2, 3] is given as 0 and the Activity [2, 4] is given as 0. For the same sequence, the Activity [2, 5] was 0.
In the case of ILPFLAGLFSKIL [satpdb10916], the Activity [1] is listed as 0, the Activity [2, 6] is listed as 0 and the Activity [2, 4] is listed as 0. For the same sequence, the Activity [2, 5] was 0.
In the case of ILPILGNLLNGLL [satpdb12015], the Activity [1] is given as 1, the Activity [2, 3] is given as 0 and the Activity [2, 4] is given as 0. For the same sequence, the Activity [2, 5] was 0.
In the case of ILPLVGNLLNDLL [satpdb10023], the Activity [1] is given as 0, the Activity [2, 6] is given as 0 and the Activity [2, 4] is given as 0. For the same sequence, the Activity [2, 5] was 0.
